Test results taken from patent US4265901A, “2-Oxybenzimidazoline compounds” (priority 1979, dated 1981).
“And” between values parts separate entries of the source, which are not always exact repeats. Equal values may be shown once. Where a name gives a salt, the structure may show the parent alone.

Key:
Morning-glory = test: Post-emergence herbicide test, morningglory; type: in vivo, Ipomoea purpurea
Experimental: (§1) In this evaluation, each compound to be tested was dissolved in a 1:1 mixture of acetone and ethanol containing a small amount of Toximul R and Toximul S (each a sulfonate/nonionic blend produced by Stepan Chemical Company, Northfield, Illinois). The solution was then diluted with deionized water to a composition of the following concentrations, by weight: Plant species used as indicators of herbicidal activity were planted in galvanized pans (flats) 31.5 cm. long, 21.5 cm. wide, and 8.0 cm. deep. The bottoms of the flats had holes to facilitate drainage. The soil used was a 1:1 ratio by volume of masonry sand and shredded top soil. Seeds of seven indicator species were planted in rows perpendicular to the long axis of the flat, one species per row, and covered with 0.5 to 1.0 cm. of sterilized soil. Indicator species and approximate number of seeds planted were as follows: Flats that were to receive preemergence treatments were planted one day prior to, or on the same day treatments were applied. Flats that were to receive postemergence treatments were planted 9 days prior to treatment and placed in a growth chamber until the day of treatment. In the growth chamber, flats received 12 to 18 hours of light per day and were subject to temperatures of 75° to 85° F. The formulated test compound was applied uniformly to the indicator species with a modified DeVilbiss atomizer using air pressure of 3 to 5 psi. Each flat received 12.5 ml. of spray solution which was equal to 200 gallons/acre total spray volume. Plants were maintained in a greenhouse after treatment. Herbicidal effects of chemicals were evaluated by two injury rating systems 18 days after preemergence applications and 14 days after postemergence applications. The degree of plant injury was based on a 1 to 5 scale and a single numerical rating was assigned to each test species as follows: […]

Mexican bean beetle = Mexican bean beetle test; type: in vivo, Epilachna varivestis; conditions: 4 days; for Mexican Bean Beetle Stom. (mortality rating): ranges in brackets are in %
Experimental: (§2) In this evaluation, each compound to be tested was dissolved in a 1:1 mixture of acetone and ethanol containing a small amount of Toximul R and Toximul S (each a sulfonate/nonionic blend produced by Stephan Chemical Company, Northfield, Ill.). The solution was then diluted with distilled water to a concentration of 1000 ppm of test compound.
This test was conducted with second instar larvae of Epilachna varivestis Mulsant, order Coleoptera, family Coccinellidae. Larvae for the test, of uniform size and not molting, were picked by hand from flats of Bountiful snap beans on which they were grown and were placed in 100×20 mm plastic petri dishes for testing. Five larvae were used per replicate.
Two 4- to 6-day-old Bountiful green bean primry leaves (approximately 6 sq. in. of leaf surface) were used for each replicate. Two replicates were run per compound.
[…] […] The nozzle of the atomizer was held 12 to 18 inches from the leaves and was supplied with 5-6 psi air pressure. The atomizer was rinsed with acetone after each compound was sprayed. The plants were allowed to dry. The leaves were then cut from the plants and placed in the petri dishes containing the bean beetle larvae. A small wad of wet cellucotton was added to each dish to help prevent the leaves from wilting.
After 4 days, a mortality count was made and the amount of feeding was noted. Moribund larvae were counted as dead.

Pigweed [1] = test: Pre-emergence herbicide test, pigweed; type: in vivo, Amaranthus retroflexus
Experimental: as §1

Corn [2] = test: Post-emergence herbicide test, corn; type: in vivo, Zea mays
Experimental: as §1

Velvetleaf [3] = test: Pre-emergence herbicide test, velvetleaf; type: in vivo, Abutilon theophrasti
Experimental: as §1

Large Crabgrass [4] = test: Post-emergence herbicide test, large crabgrass; type: in vivo, Digitaria sanguinalis
Experimental: as §1

Foxtail [5] = test: Pre-emergence herbicide test, foxtail; type: in vivo, Setaria italica
Experimental: as §1

Zinnia [6] = test: Post-emergence herbicide test, zinnia; type: in vivo, Zinnia elegans
Experimental: as §1

Zinnia [7] = test: Pre-emergence herbicide test, zinnia; type: in vivo, Zinnia elegans
Experimental: as §1

Large Crabgrass [8] = test: Pre-emergence herbicide test, large crabgrass; type: in vivo, Digitaria sanguinalis
Experimental: as §1

Foxtail [9] = test: Post-emergence herbicide test, foxtail; type: in vivo, Setaria italica
Experimental: as §1

Corn [10] = test: Pre-emergence herbicide test, corn; type: in vivo, Zea mays
Experimental: as §1

Pigweed [11] = test: Post-emergence herbicide test, pigweed; type: in vivo, Amaranthus retroflexus
Experimental: as §1

Southern armyworm = Southern armyworm test; type: in vivo, Spodoptera eridania; conditions: 1000 ppm, 4 days; note: ranges in brackets are in %
Experimental: as §2
This test was conducted with second to third instar larvae of Spodoptera eridania Cramer, Order Lepidoptera, Family Noctuidae. Uniform larvae (3rd instar) about 1 to 1.2 cm. in length were picked by hand from flats of Henderson lima beans and placed in plastic petri dishes.
The procedure otherwise was the same as used with the Mexican bean beetle reported above, except that 5 ml. of a formulation containing 100 ppm (0.01%) DDT [1,1,1-trichloro-2,2-bis(p-chlorophenyl)ethane] was used as the reference standard.

Velvetleaf [12] = test: Post-emergence herbicide test, velvetleaf; type: in vivo, Abutilon theophrasti
Experimental: as §1

## O=[N+]([O-])c1cc(C(F)(F)F)cc2c1NC(O)(C(F)(F)C(F)F)N2 (stereo not drawn) [Example 2, 2-Hydroxy-2-(1,1,2,2-Tetrafluoroethyl)-4-Nitro-6-(Trifluoromethyl)Benzimidazoline, Sodium Salt, and Hydrate]
Morning-glory; 1/2 lb/A
  plant injury rating: 2B
Morning-glory; 1/4 lb/A
  plant injury rating: 2B
Morning-glory; 2 lb/A
  plant injury rating: 3BS
Morning-glory; 4 lb/A
  plant injury rating: 4BS
Morning-glory; 8 lb/A
  plant injury rating: 5D
Mexican bean beetle; 100 ppm
  Mexican Bean Beetle Feed. (feeding rating): 0 (none of the leaves eaten)
  Mexican Bean Beetle Stom. (mortality rating): 3 (100)
Mexican bean beetle; 1000 ppm
  Mexican Bean Beetle Stom. (mortality rating): 3 (100)
Pigweed [1]; 1/2 lb/A
  plant injury rating: 2S
Pigweed [1]; 1/4 lb/A
  plant injury rating: 1 (no injury)
Pigweed [1]; 2 lb/A
  plant injury rating: 4SR
Pigweed [1]; 4 lb/A
  plant injury rating: 4RS
Pigweed [1]; 8 lb/A
  plant injury rating: 5D
Corn [2]; 1/2 lb/A
  plant injury rating: 1 (no injury)
Corn [2]; 1/4 lb/A
  plant injury rating: 1 (no injury)
Corn [2]; 2 lb/A
  plant injury rating: 3BS
Corn [2]; 4 lb/A
  plant injury rating: 3BS
Corn [2]; 8 lb/A
  plant injury rating: 5D
Velvetleaf [3]; 1/2 lb/A
  plant injury rating: 1 (no injury)
Velvetleaf [3]; 1/4 lb/A
  plant injury rating: 1 (no injury)
Velvetleaf [3]; 1 lb/A
  plant injury rating: 1 (no injury)
Velvetleaf [3]; 2 lb/A
  plant injury rating: 2S
Velvetleaf [3]; 4 lb/A
  plant injury rating: 4BS
Velvetleaf [3]; 8 lb/A
  plant injury rating: 5D
Large Crabgrass [4]; 1/2 lb/A
  plant injury rating: 3BS
Large Crabgrass [4]; 1/4 lb/A
  plant injury rating: 2BS
Large Crabgrass [4]; 1 lb/A
  plant injury rating: 4BS
Large Crabgrass [4]; 2 lb/A
  plant injury rating: 5D
Large Crabgrass [4]; 4 lb/A
  plant injury rating: 5D
Large Crabgrass [4]; 8 lb/A
  plant injury rating: 5D
Foxtail [5]; 1/2 lb/A
  plant injury rating: 1 (no injury)
Foxtail [5]; 1/4 lb/A
  plant injury rating: 1 (no injury)
Foxtail [5]; 1 lb/A
  plant injury rating: 1 (no injury)
Foxtail [5]; 2 lb/A
  plant injury rating: 2S
Foxtail [5]; 4 lb/A
  plant injury rating: 2S
Foxtail [5]; 8 lb/A
  plant injury rating: 5N
Zinnia [6]; 1/2 lb/A
  plant injury rating: 3BS
Zinnia [6]; 1/4 lb/A
  plant injury rating: 3BS
Zinnia [6]; 2 lb/A
  plant injury rating: 5D
Zinnia [6]; 4 lb/A
  plant injury rating: 5D
Zinnia [6]; 8 lb/A
  plant injury rating: 5D
Zinnia [7]; 1/2 lb/A
  plant injury rating: 1 (no injury)
Zinnia [7]; 1/4 lb/A
  plant injury rating: 1 (no injury)
Zinnia [7]; 1 lb/A
  plant injury rating: 1 (no injury)
Zinnia [7]; 2 lb/A
  plant injury rating: 2S
Zinnia [7]; 4 lb/A
  plant injury rating: 4BS
Zinnia [7]; 8 lb/A
  plant injury rating: 5D
Large Crabgrass [8]; 1/2 lb/A
  plant injury rating: 1 (no injury)
Large Crabgrass [8]; 1/4 lb/A
  plant injury rating: 1 (no injury)
Large Crabgrass [8]; 1 lb/A, Hydrate
  plant injury rating: 3S and 2S
Large Crabgrass [8]; 2 lb/A
  plant injury rating: 4RS
Large Crabgrass [8]; 4 lb/A
  plant injury rating: 4RS
Large Crabgrass [8]; 8 lb/A
  plant injury rating: 5N
Foxtail [9]; 1/2 lb/A
  plant injury rating: 3BS
Foxtail [9]; 1/4 lb/A
  plant injury rating: 3BS
Foxtail [9]; 1 lb/A
  plant injury rating: 4BS
Foxtail [9]; 2 lb/A
  plant injury rating: 4BS
Foxtail [9]; 4 lb/A
  plant injury rating: 4BS
Foxtail [9]; 8 lb/A
  plant injury rating: 5D
Corn [10]; 1/2 lb/A
  plant injury rating: 1 (no injury)
Corn [10]; 1/4 lb/A
  plant injury rating: 1 (no injury)
Corn [10]; 1 lb/A
  plant injury rating: 1 (no injury)
Corn [10]; 2 lb/A
  plant injury rating: 1 (no injury)
Corn [10]; 4 lb/A
  plant injury rating: 1 (no injury)
Corn [10]; 8 lb/A
  plant injury rating: 3SB
Pigweed [11]; 1/2 lb/A
  plant injury rating: 4BS
Pigweed [11]; 1/4 lb/A
  plant injury rating: 3BS
Pigweed [11]; 1 lb/A
  plant injury rating: 5D
Pigweed [11]; 2 lb/A
  plant injury rating: 5D
Pigweed [11]; 4 lb/A
  plant injury rating: 5D
Pigweed [11]; 8 lb/A
  plant injury rating: 5D
Southern armyworm
  Southern Armyworm Stom. (mortality rating): 0 (0)
Velvetleaf [12]; 1/2 lb/A
  plant injury rating: 2SB
Velvetleaf [12]; 1/4 lb/A
  plant injury rating: 2B
Velvetleaf [12]; 1 lb/A, Hydrate
  plant injury rating: 3BS and 4BS
Velvetleaf [12]; 2 lb/A
  plant injury rating: 5D
Velvetleaf [12]; 4 lb/A
  plant injury rating: 5D
Velvetleaf [12]; 8 lb/A
  plant injury rating: 5D
